This passage reports IC50 results from ChEMBL document CHEMBL1132543, “N-deacetyl-N-aminoacylthiocolchicine derivatives: synthesis and biological evaluation on MDR-positive and MDR-negative human cancer cell lines” (J Med Chem, 1999).

pIC50: −log10 of the molar value.

One assay relates to MCF7. Put plainly: Anti tumor activity on human breast cancer cell line MDR-positive MCF-7 ADRr after 72 hours of treatment. It is filed as functional, cell-based. The note with it: MCF7, 72 h.
The test system of a further assay is MDA-MB-231. Put plainly: cells. The class given is functional, cell-based. The note with it: Homo sapiens, MDA-MB-231, 72 h.

Description for MDA-MB-231: Anti tumor activity on human breast cancer cell line MDR-negative MDA-MB 231 after 72 hours of treatment

Broadly, the pIC50 is −log10 of the IC50, conventionally taken in molar units. Low values mean a high IC50, high ones a low IC50. In the case of `COc1cc2c(c(OC)c1OC)-c1ccc(SC)c(=O)cc1[C@@H](NC(=O)[C@H](C)N)CC2`, the pIC50 is 5.00 in the assay on MCF7 and 7.05 in the assay on MDA-MB-231.

`COc1cc2c(c(OC)c1OC)-c1ccc(SC)c(=O)cc1[C@@H](NC(=O)CN)CC2`: the pIC50 is 5.00 in the assay with MCF7 and 8.12 in the assay with MDA-MB-231.

`COc1cc2c(c(OC)c1OC)-c1ccc(SC)c(=O)cc1[C@@H](NC(=O)[C@@H](C)N)CC2`: the pIC50 with MCF7 was 4.92; in the assay with MDA-MB-231 it was 6.82.

Regarding `COc1cc2c(c(OC)c1OC)-c1ccc(SC)c(=O)cc1[C@@H](NC(=O)CNC(=O)C(F)(F)F)CC2`, the pIC50 in the assay with MCF7 is 4.92; in the assay on MDA-MB-231, 8.22.

As for `COc1cc2c(c(OC)c1OC)-c1ccc(SC)c(=O)cc1[C@@H](NC(=O)[C@@H](N)c1ccccc1)CC2.COc1cc2c(c(OC)c1OC)-c1ccc(SC)c(=O)cc1[C@@H](NC(=O)[C@H](N)c1ccccc1)CC2`, the negative-log IC50 (pIC50) is 5.77 with MCF7 and 8.52 in the assay on MDA-MB-231.

For `COc1cc2c(c(OC)c1OC)-c1ccc(SC)c(=O)cc1[C@@H](NC(=O)[C@@H](NC(=O)C(F)(F)F)c1ccccc1)CC2.COc1cc2c(c(OC)c1OC)-c1ccc(SC)c(=O)cc1[C@@H](NC(=O)[C@H](NC(=O)C(F)(F)F)c1ccccc1)CC2`, the pIC50 in the assay on MCF7 is 5.82; in the assay on MDA-MB-231 it was 7.62.

Take `COc1cc2c(c(OC)c1OC)-c1ccc(SC)c(=O)cc1[C@@H](NC(=O)[C@@H](C)N)CC2.COc1cc2c(c(OC)c1OC)-c1ccc(SC)c(=O)cc1[C@@H](NC(=O)[C@H](C)N)CC2`: the values for the negative-log IC50 (pIC50) with MCF7 and in the assay on MDA-MB-231 were 6.10 and 7.72, respectively.

As to `COc1cc2c(c(OC)c1OC)-c1ccc(SC)c(=O)cc1[C@@H](NC(=O)[C@@H](CCSC)NC(=O)C(F)(F)F)CC2.COc1cc2c(c(OC)c1OC)-c1ccc(SC)c(=O)cc1[C@@H](NC(=O)[C@H](CCSC)NC(=O)C(F)(F)F)CC2`, the negative logarithm of the IC50 (pIC50) was 5.00 in the assay with MCF7 and 7.43 in the assay on MDA-MB-231.

Regarding `COc1cc2c(c(OC)c1OC)-c1ccc(SC)c(=O)cc1[C@@H](NC(=O)[C@@H](N)CCSC)CC2.COc1cc2c(c(OC)c1OC)-c1ccc(SC)c(=O)cc1[C@@H](NC(=O)[C@H](N)CCSC)CC2`, the pIC50 is 4.70 with MCF7 and 7.46 with MDA-MB-231.

For the compound `COc1cc2c(c(OC)c1OC)-c1ccc(SC)c(=O)cc1[C@@H](NC(=O)[C@@H](C)NC(=O)C(F)(F)F)CC2.COc1cc2c(c(OC)c1OC)-c1ccc(SC)c(=O)cc1[C@@H](NC(=O)[C@H](C)NC(=O)C(F)(F)F)CC2`, the negative-log IC50 (pIC50) is 5.68 in the assay on MCF7 and 7.92 with MDA-MB-231.

Consider `COc1cc2c(c(OC)c1OC)-c1ccc(SC)c(=O)cc1[C@@H](NC(=O)C(F)(F)F)CC2`, for which the pIC50 in the assay with MCF7 was 7.46; with MDA-MB-231, 8.89.

For the compound `COc1cc2c(c(OC)c1OC)-c1ccc(OC)c(=O)cc1[C@@H](NC(C)=O)CC2` [COLCHICINE], in the assay with MDA-MB-231, the negative-log IC50 (pIC50) is 8.74.
